Assay results from patent publication US4605744A, “Imidazole derivatives” (Hoffmann-La Roche Inc., priority 1985, dated 1986).
Values after ≈ are worked out from the molar mass of the structure shown. Counter-ions that a name gives are not always drawn. Like-named read-outs stand apart in the source and are kept apart here.

Experiments:
Experiment in all cases: In vitro antibacterial activity (MIC)
Format in all cases: cell-based
[1] = tested on: K. pneumoniae 8357; conditions: Klebsiella pneumoniae, 8357
In short: (§1)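 Overnight cultures, diluted 10^-2, were added at 1.5 μl per well to twofold drug series (128–0.008 μg/ml) in Mueller-Hinton broth.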

[2] = tested on: S. marcescens S3; conditions: Serratia marcescens
In short: as §1

[3] = tested on: S. marcescens S2; conditions: Serratia marcescens
In short: as §1

[4] = tested on: S. marcescens 5805; conditions: Serratia marcescens, 5805, S. marcescens 5805; read-out: MIC
In short: as §1

[5] = tested on: E. coli R-563; conditions: Escherichia coli
In short: as §1

[6] = tested on: P. aeruginosa 503-56
In short: as §1

[7] = tested on: S. schottmuelleri; conditions: read-out: MIC
In short: as §1

[8] = tested on: E. cloacae P99; conditions: Enterobacter cloacae, P99, E. cloacae P99
In short: as §1

[9] = tested on: K. pneumoniae 4964; conditions: Klebsiella pneumoniae, 4964, K. pneumoniae 4964; read-out: MIC
In short: as §1

[10] = tested on: K. pneumoniae A; conditions: Klebsiella pneumoniae, K. pneumoniae A; read-out: MIC
In short: as §1

[11] = tested on: P. aeruginosa 8710
In short: as §1

[12] = tested on: E. cloacae 5699; conditions: Enterobacter cloacae, 5699, E. cloacae 5699; read-out: MIC
In short: as §1

[13] = tested on: P. aeruginosa 6148B
In short: as §1

[14] = tested on: S. pneumoniae 6301
In short: as §1

[15] = tested on: E. cloacae 9570A; conditions: Enterobacter cloacae
In short: as §1

[16] = tested on: E. coli 5152
In short: as §1

[17] = tested on: E. aerogenes 503-478; conditions: Klebsiella aerogenes, 503478, E. aerogenes 503-478; read-out: MIC
In short: as §1

[18] = tested on: K. pneumoniae 503-964
In short: as §1

[19] = tested on: S. marcescens S4
In short: as §1

[20] = tested on: S. marcescens SM; conditions: Serratia marcescens
In short: as §1

[21] = tested on: E. aerogenes 83
In short: as §1

[22] = tested on: S. pyogenes 4
In short: as §1

[23] = tested on: E. coli 503-455; conditions: Escherichia coli, 503455
In short: as §1

[24] = tested on: E. cloacae 6951; conditions: Enterobacter cloacae, 6951, E. cloacae 6951; read-out: MIC
In short: as §1

[25] = tested on: S. pneumoniae SC
In short: as §1

[26] = tested on: E. coli 4; conditions: Escherichia coli, 4, E. coli 4; read-out: MIC
In short: as §1

[27] = tested on: C. freundii 8ASM; conditions: Citrobacter freundii, 8ASM, C. freundii 8ASM; read-out: MIC
In short: as §1

[28] = tested on: K. pneumoniae HE7; conditions: Klebsiella pneumoniae
In short: as §1

[29] = tested on: E. aerogenes 8
In short: as §1

[30] = tested on: P. rettgeri ATCC 9250; conditions: Providencia rettgeri
In short: as §1

[31] = tested on: K. pneumoniae 35
In short: as §1

[32] = tested on: P. mirabilis 190
In short: as §1

[33] = tested on: E. coli 48; conditions: Escherichia coli, 48
In short: as §1

[34] = tested on: P. aeruginosa 503-820
In short: as §1

[35] = tested on: P. aeruginosa 8780; conditions: Pseudomonas aeruginosa
In short: as §1

[36] = tested on: S. aureus Giorgio; conditions: Staphylococcus aureus
In short: as §1

[37] = tested on: S. typhi P58A; conditions: Salmonella enterica, TYPHI
In short: as §1

[38] = tested on: S. pneumoniae 6302
In short: as §1

[39] = tested on: K. pneumoniae 5096
In short: as §1

[40] = tested on: P. vulgaris ATCC 6380; conditions: Proteus vulgaris, ATCC6380, P. vulgaris ATCC 6380; read-out: MIC
In short: as §1

[41] = tested on: E. cloacae 214
In short: as §1

[42] = tested on: E. cloacae 9295
In short: as §1

[43] = tested on: P. mirabilis 2
In short: as §1

[44] = tested on: K. pneumoniae 503-994; conditions: Klebsiella pneumoniae, 503994, K. pneumoniae 503-994; read-out: MIC
In short: as §1

[45] = tested on: E. coli 387-1; conditions: Escherichia coli, 3871, E. coli 387-1; read-out: MIC
In short: as §1

[46] = S. marcescens S3, read-out: MIC
[47] = S. marcescens S2, read-out: MIC
[48] = Pseudomonas aeruginosa, read-out: MIC
[49] = Streptococcus pneumoniae, 6301, S. pneumoniae 6301, read-out: MIC
[50] = Klebsiella pneumoniae, 503964, K. pneumoniae 503-964, read-out: MIC
[51] = Serratia marcescens, S4, S. marcescens S4, read-out: MIC
[52] = Klebsiella aerogenes, 83, E. aerogenes 83, read-out: MIC
[53] = Streptococcus pyogenes, 4, S. pyogenes 4, read-out: MIC
[54] = Streptococcus pneumoniae, read-out: MIC
[55] = K. pneumoniae HE7, read-out: MIC
[56] = Klebsiella aerogenes, E. aerogenes 8, read-out: MIC
[57] = Klebsiella pneumoniae, K. pneumoniae 35, read-out: MIC
[58] = Pseudomonas aeruginosa, 503820, P. aeruginosa 503-820, read-out: MIC
[59] = Streptococcus pneumoniae, 6302, S. pneumoniae 6302, read-out: MIC
[60] = Klebsiella pneumoniae, K. pneumoniae 5096, read-out: MIC

`CC1(C)S[C@@H]2[C@H](N=CN3CCC(CCCn4ccnc4[N+](=O)[O-])CC3)C(=O)N2[C@H]1C(=O)O` [K, [2S-(2alpha,5alpha,6beta)]-6-[[[4-[3-(2-nitro-1H-imidazol-1-yl)propyl]piperidinyl]methylene]amino]-3,3-dimethyl-7-oxo-4-thia-1-azabicyclo[3.2.0]heptane-2-carboxylic acid hydrochloride 0.66 molar hydrate] was tested, and the MIC [1] was 2 µg/mL, the MIC [2, 46] was 4 µg/mL and the MIC [3, 47] was 2 µg/mL. The MIC [4] was 8 µg/mL, the MIC ([5]; R563, E. coli R-563, read-out: MIC) was 0.5 µg/mL and the MIC ([6]; Pseudomonas aeruginosa, 50356, P. aeruginosa 503-56, read-out: MIC) was > 128 µg/mL. For the same molecule, the MIC [7] was 0.5 µg/mL, the MIC [8] was 0.5 µg/mL and the MIC [9] was 0.5 µg/mL. The MIC [10] was 0.25 µg/mL, the MIC ([11]; Pseudomonas aeruginosa, P. aeruginosa 8710, read-out: MIC) was > 128 µg/mL and the MIC [12] was 1 µg/mL. The MIC [13, 48] was > 128 µg/mL, the MIC [14, 49] was 1 µg/mL and the MIC ([15]; 9570A) was 1 µg/mL. It also gave an MIC ([16]; Escherichia coli, 5152) of 8 µg/mL, an MIC [17] of 4 µg/mL and an MIC [18, 50] of 0.5 µg/mL. The MIC [19, 51] was 8 µg/mL, the MIC ([20]; read-out: MIC) was 2 µg/mL and the MIC [21, 52] was 8 µg/mL. For the same molecule, the MIC [22, 53] was 0.5 µg/mL, the MIC [23] was 4 µg/mL and the MIC [24] was 16 µg/mL. For the same molecule, the MIC [25, 54] was 1 µg/mL, the MIC [26] was 0.5 µg/mL and the MIC [27] was 0.25 µg/mL. The MIC [28, 55] was 64 µg/mL, the MIC [29, 56] was 8 µg/mL and the MIC ([30]; ATCC9250, P. rettgeri ATCC 9250, read-out: MIC) was 2 µg/mL. The MIC [31, 57] was 0.5 µg/mL, the MIC ([32]; Proteus mirabilis, 190, P. mirabilis 190, read-out: MIC) was 0.5 µg/mL and the MIC [33] was 0.25 µg/mL. The MIC [34, 58] was > 128 µg/mL, the MIC ([35]; P. aeruginosa 8780, read-out: MIC) was > 128 µg/mL and the MIC ([36]; S. aureus Giorgio, read-out: MIC) was 8 µg/mL. For the same molecule, the MIC [37] was 0.5 µg/mL, the MIC [38, 59] was 1 µg/mL and the MIC [39, 60] was 16 µg/mL. For the same molecule, the MIC [40] was 0.5 µg/mL, the MIC ([41]; Enterobacter cloacae, 214, E. cloacae 214, read-out: MIC) was 0.5 µg/mL and the MIC ([42]; Enterobacter cloacae, 9295, E. cloacae 9295, read-out: MIC) was 1 µg/mL. It also gave an MIC ([43]; Proteus mirabilis, 2, P. mirabilis 2, read-out: MIC) of 4 µg/mL, an MIC [44] of 0.25 µg/mL and an MIC [45] of 0.5 µg/mL.

`CC1(C)S[C@@H]2[C@H](/N=C/N3CCCCCC3)C(=O)N2[C@H]1C(=O)O` [Amdinocillin, amdinocillin, reference compound] gave an MIC ([2]; S3, S. marcescens S3) of 0.125 µg/mL (≈ 0.384 µM), an MIC [2, 46] of 0.062 µg/mL (≈ 0.191 µM) and an MIC ([3]; S2, S. marcescens S2) of 0.125 µg/mL (≈ 0.384 µM). For the same molecule, the MIC [3, 47] was 0.25 µg/mL (≈ 0.768 µM), the MIC ([5]; R563) was 0.125 µg/mL (≈ 0.384 µM) and the MIC ([6]; P. aeruginosa 503-56) was 128 µg/mL (≈ 393 µM). For the same molecule, the MIC ([6]; Pseudomonas aeruginosa, 50356, P. aeruginosa 503-56) was > 128 µg/mL, the MIC ([11]; P. aeruginosa 8710) was 128 µg/mL (≈ 393 µM) and the MIC ([11]; Pseudomonas aeruginosa, 8710, P. aeruginosa 8710) was > 128 µg/mL. For the same molecule, the MIC [13] was 128 µg/mL (≈ 393 µM), the MIC ([13]; Pseudomonas aeruginosa, 6148B) was > 128 µg/mL and the MIC [13, 48] was 64 µg/mL (≈ 197 µM). It also gave an MIC ([14]; S. pneumoniae 6301) of 1 µg/mL (≈ 3.07 µM), an MIC [14, 49] of 2 µg/mL (≈ 6.15 µM) and an MIC ([15]; 9570A) of 0.125 µg/mL (≈ 0.384 µM). It also gave an MIC ([15]; read-out: MIC) of 0.062 µg/mL (≈ 0.191 µM), an MIC ([16]; E. coli 5152) of 16 µg/mL (≈ 49.2 µM) and an MIC ([16]; Escherichia coli, 5152, E. coli 5152, read-out: MIC) of 8 µg/mL (≈ 24.6 µM). For the same molecule, the MIC ([18]; Klebsiella pneumoniae, 503964, K. pneumoniae 503-964) was 0.125 µg/mL (≈ 0.384 µM), the MIC [18, 50] was 0.062 µg/mL (≈ 0.191 µM) and the MIC ([19]; S. marcescens S4) was 0.5 µg/mL (≈ 1.54 µM). The MIC [19, 51] was 1 µg/mL (≈ 3.07 µM), the MIC [20] was 0.125 µg/mL (≈ 0.384 µM) and the MIC ([20]; read-out: MIC) was 0.062 µg/mL (≈ 0.191 µM). For the same molecule, the MIC ([21]; E. aerogenes 83) was 4 µg/mL (≈ 12.3 µM), the MIC [21, 52] was 8 µg/mL (≈ 24.6 µM) and the MIC ([22]; S. pyogenes 4) was 2 µg/mL (≈ 6.15 µM). It also gave an MIC [22, 53] of 1 µg/mL (≈ 3.07 µM), an MIC [25] of 1 µg/mL (≈ 3.07 µM) and an MIC [25, 54] of 2 µg/mL (≈ 6.15 µM). For the same molecule, the MIC ([28]; HE7, K. pneumoniae HE7) was > 128 µg/mL, the MIC [28, 55] was 64 µg/mL (≈ 197 µM) and the MIC ([29]; Klebsiella aerogenes, 8, E. aerogenes 8) was 128 µg/mL (≈ 393 µM). For the same molecule, the MIC [29, 56] was 0.25 µg/mL (≈ 0.768 µM), the MIC ([30]; ATCC9250) was 0.125 µg/mL (≈ 0.384 µM) and the MIC ([31]; Klebsiella pneumoniae, 35, K. pneumoniae 35) was 0.125 µg/mL (≈ 0.384 µM). It also gave an MIC [31, 57] of 0.062 µg/mL (≈ 0.191 µM), an MIC ([32]; Proteus mirabilis, 190) of 0.125 µg/mL (≈ 0.384 µM) and an MIC ([34]; P. aeruginosa 503-820) of 128 µg/mL (≈ 393 µM). For the same molecule, the MIC ([34]; Pseudomonas aeruginosa, 503820, P. aeruginosa 503-820) was > 128 µg/mL, the MIC [34, 58] was 64 µg/mL (≈ 197 µM) and the MIC [35]; 8780 was > 128 µg/mL. The MIC [36] was 32 µg/mL (≈ 98.3 µM), the MIC ([38]; S. pneumoniae 6302) was 2 µg/mL (≈ 6.15 µM) and the MIC [38, 59] was 4 µg/mL (≈ 12.3 µM). The MIC ([39]; Klebsiella pneumoniae, 5096, K. pneumoniae 5096) was 128 µg/mL (≈ 393 µM), the MIC [39, 60] was 32 µg/mL (≈ 98.3 µM) and the MIC ([41]; Enterobacter cloacae, 214) was 0.125 µg/mL (≈ 0.384 µM). For the same molecule, the MIC ([42]; Enterobacter cloacae, 9295) was 0.125 µg/mL (≈ 0.384 µM) and the MIC ([43]; Proteus mirabilis, 2) was 0.125 µg/mL (≈ 0.384 µM).
